Values joined by “and” are separate entries in the source; they are usually repeats but may differ in a detail not shown here. Identical values can stand only once. Active and inactive are the calls of the source. The rule behind the calls is not given here.

Ribonuclease H1 (Homo sapiens), sequence (O60930 whole entry, looked up): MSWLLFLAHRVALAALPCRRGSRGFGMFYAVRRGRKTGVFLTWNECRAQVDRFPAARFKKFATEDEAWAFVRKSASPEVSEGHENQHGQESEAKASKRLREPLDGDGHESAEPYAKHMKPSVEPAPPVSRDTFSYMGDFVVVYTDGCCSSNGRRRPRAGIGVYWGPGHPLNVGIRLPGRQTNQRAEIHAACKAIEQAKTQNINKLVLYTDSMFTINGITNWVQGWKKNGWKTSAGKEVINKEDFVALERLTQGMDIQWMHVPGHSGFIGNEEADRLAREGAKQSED

This experiment concerns the target Ribonuclease H1 (Homo sapiens) (UniProt O60930). The experiment can be described thus: human RNase H1 inhibitors, dose response, biochemical, FRET RNA/DNA duplex cleavage (AID 366).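 Note: potency is for inhibitors that lower RNA cleavage and so lower fluorescence.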 Particulars: fluorescence.
One may read the IC50 as the concentration that gives 50% inhibition. `CC(C)=CCC[C@]1(C)[C@@H](CC=C(C)C)C[C@@]2(CC=C(C)C)C(=O)/C(=C(\O)c3ccc(O)c(O)c3)C(=O)[C@]1(CC=C(C)C)C2=O`: the half-maximal inhibitory concentration (IC50) was 3.2 µM. As for `COc1ccc(C(=O)NC(=S)Nc2ccc3nn(-c4ccc(C)c(Cl)c4)nc3c2)cc1[N+](=O)[O-]`, the figure is 0.56 µM; as for `O=C1Nc2ccc(I)cc2C1(O)N1CCOCC1` (stereo not given), 0.4 µM; as for `Oc1cc(O)c2c(c1)OC(c1ccc(O)c(O)c1)C(OC1(c3cc(O)c(O)c(O)c3)Oc3cc(O)cc(O)c3C(O)C1O)C2` (stereo not given), 2.4 µM. Then `O=C1C(Cl)=C(Nc2ccc(S(=O)(=O)Nc3ccccn3)cc2)C(=O)c2ccccc21`, with “inactive”.

Take `CC(C)=CCC1=C(O)[C@@](O)(CC=C(C)C)C(=O)C(C(=O)CC(C)C)=C1O`: the IC50 is 2 µM.

As to `Nc1nc(Sc2ccc([N+](=O)[O-])c3nonc23)c2[nH]cnc2n1`, the IC50 result was “inactive”. As for `Cc1ccc(-n2c(/C=C/c3ccc(O)c(O)c3)nc3ccccc3c2=O)cc1`, the figure is 7.3 µM. For the compound `O=C1NC(=O)/C(=C/c2ccc(-c3ccc(O)c(C(=O)O)c3)o2)S1`, the IC50 was 0.2 µM. As for `O=C1c2ccccc2C(=O)N1c1ccc(-c2nc3ccc(N4C(=O)c5ccccc5C4=O)cc3[nH]2)cc1`, the figure is 0.54 µM.

On to `Cc1ccc(NC(=O)c2c(NC(=O)c3ccccc3F)sc3c2CCCCC3)cc1`, for which the IC50 was 0.32 µM. As for `Nc1ccc(S(=O)(=O)O)c2cccc(O)c12`, the figure is 4.5 µM; as for `Cc1nn(CC(=O)Nc2sc(C)c(C)c2C(N)=O)c(C)c1[N+](=O)[O-]`, 6 µM.

As for `CCOc1cccc(N2C(=O)/C(=C/c3cn(CC(=O)OC)c4ccccc34)C(=O)NC2=S)c1`, the IC50 was 0.92 µM. Regarding `CC1=NN(c2ccc(S(N)(=O)=O)cc2)C(=O)/C1=C/c1ccc(-c2ccc(Cl)cc2Cl)o1`, the IC50 is 0.75 µM. Then `Cc1sc(NC(=O)Cc2ccccc2)c(C(N)=O)c1C`, with “inactive”. As for `CC1=C(C)CC(C(=O)Nc2ccc(N3C(=O)c4ccccc4C3=O)cc2)C(C(=O)O)C1` (stereo not given), the entry is “inactive”. Then `O=C1NC(=S)S/C1=C/c1cccc(OCc2ccc(Cl)c(Cl)c2)c1`, with 7.3 µM; and `CC1=c2c(oc3cc(O)c(Nc4c(C)cc(O)cc4O)c(C)c23)=CC(=O)C1=Nc1c(C)cc(O)cc1O`, with 0.3 µM. On to `N#Cc1c(NC(=O)C(F)(F)F)sc2c3c(=O)c4ccccc4c(=O)c=3oc3ccccc3c12`, for which the IC50 result is “inactive”. As for `CCCc1cc(=O)oc2c3c(c4c(c12)OC(C)(C)C=C4)O[C@@H](C)[C@H](C)[C@@H]3F`, the IC50 is 6.8 µM. Then `O=C1C=C/C(=N\S(=O)(=O)c2cc(Cl)ccc2Cl)C=C1Cl`, with 1.6 µM; and `N#Cc1c(N)nc(SCC(=O)c2ccc(O)c(O)c2)c(C#N)c1-c1ccc(O)cc1`, with 1.3 µM; and `O=C1c2ccc(O)cc2C(=O)c2c1ccc(O)c2O`, with 7 µM. As for `CC1Oc2cc3c(-c4c(O)cc(O)c5c(O)c6c(cc45)OC(C)C(C)C6=O)c(O)cc(O)c3c(O)c2C(=O)C1C` (stereo not given), the figure is 2.7 µM; as for `Cc1ccccc1-n1c(O)c(C=C2C=CC=N2)c(=O)[nH]c1=S`, 5 µM. Then `Cc1cc(=O)c2c(O)c3c(O)cc(O)c4c5c(O)cc(O)c6c(O)c7c(=O)cc(C)c8c1c2c(c34)c(c65)c78`, with 1.1 µM; and `COc1ccc(-c2c(C#N)c(N)nc(SCC(=O)c3ccc(O)c(O)c3)c2C#N)cc1`, with 1.1 µM; and `O=c1oc2ccccc2c(O)c1/C=C1\C=Nc2ccccc21`, with 9.7 µM.

For `COc1c(OC)c(O)c2c(=O)cc(-c3ccc(O)c(O)c3)oc2c1OC`, the IC50 entry was “inactive”. In the case of `CC(C)=CCC(O)C1=CC(=O)c2c(O)ccc(O)c2C1=O` (stereo not given), the IC50 was 4.2 µM. For the compound `Cc1sc2nc(-c3ccc([N+](=O)[O-])cc3)[nH]c(=O)c2c1C`, the 50% inhibitory concentration (IC50) was 0.9 µM. Then `CC(C)=CCc1ccc(O)c(=O)cc1C(C)C`, with “inactive”; and `O=C(Nc1ccc(N2CCN(C(=O)c3ccccc3)CC2)cc1)c1ccc(-c2ccccc2)cc1`, with 0.35 µM; and `O=C(O)c1c(Br)c(Br)c(Br)c(Br)c1C1c2ccc(O)cc2Oc2cc(O)ccc21`, with 0.9 µM.

Take `COc1ccc(N2C(=O)/C(=C\c3cn(CC(=O)Nc4ccccc4)c4ccccc34)C(=O)NC2=S)cc1`: the IC50 was 0.62 µM. Then `Cc1sc(NC(=O)c2ccc(Br)o2)c(C(N)=O)c1C`, with 5 µM; and `COc1ccc(N2C(=O)/C(=C/c3ccc(I)o3)C(=O)NC2=S)cc1`, with 1.2 µM; and `O=C1C(Cl)=CC(=NS(=O)(=O)c2ccccc2)C=C1Cl`, with 4.3 µM. As for `CC(C)c1cccc(O)c(=O)c1`, the figure is > 100 µM (inactive); as for `O=C1NC(=S)N(c2ccccc2F)C(=O)/C1=C/c1ccc(I)o1`, 3 µM; as for `C=CCN1C(=O)/C(=C\c2ccc([N+](=O)[O-])o2)C(=O)NC1=S`, “inactive”. Then `O=C1/C(=C/c2ccco2)C(=O)N(c2ccc(Br)cc2)C(=S)N1c1ccccc1`, with 4.4 µM. As for `S=C(Nc1ccc2c(c1)Cc1ccccc1-2)Nc1ccc2c(c1)Cc1ccccc1-2`, the half-maximal inhibitory concentration (IC50) is 1.3 µM. Then `Cc1ccc(C=C2C(=O)NC(=S)N(c3ccccc3Cl)C2=O)o1`, with “inactive”; and `O=S(=O)(Nc1cccc(C(F)(F)F)c1)c1ccc2ccccc2c1`, with “inactive”. Then `O=C1NC(=S)N(c2ccccc2F)C(=O)C1=Cc1ccco1`, with 0.2 µM; and `CC(C)c1ccc(O)c(=O)cc1`, with “inactive”. As for `COc1cccc2cc(C(N)=O)c(=O)oc12`, the entry is “inactive”; as for `CN1CC(O)C2=CC(=O)C(=O)C=C21` (stereo not given), 1.6 µM; as for `COc1cc(-c2[o+]c3cc(O)cc(O)c3cc2O)cc(O)c1O`, 2.4 µM and 4 µM. As to `C=CC(C)(C)C12CC3C(=O)N/C(=C\c4cnc[nH]4)C(=O)N3C1Nc1ccccc12` (stereo not given), the IC50 result was “inactive”.

`O=C1C=CC(=O)C(c2cc(Cl)ccc2Cl)=C1`: the IC50 was 3 µM. As for `COc1cccc(-c2nc3cc(NC(=O)/C=C\c4ccccc4)ccc3o2)c1`, the figure is 0.8 µM; as for `Oc1c(Br)cc(/C=N/Nc2nnc3c(n2)[nH]c2ccccc23)c(Br)c1O`, 0.3 µM; as for `O=C1NC(=S)N(c2ccc(Cl)cc2)C(=O)/C1=C\C=C\c1ccccc1[N+](=O)[O-]`, 7 µM. Then `C=CCn1c(N)c(-c2nc3ccccc3[nH]2)sc1=S`, with “inactive”; and `O=C1C=CC2=C3c4cc(O)c(O)cc4CC3(O)COC2=C1O` (stereo not given), with 0.2 µM; and `O=c1[nH]c2[nH]c(=S)[nH]c(=S)c2[nH]1`, with 9 µM. Then `Cc1ccc(C(=O)NC(=S)Nc2ccc(-c3nc4ccccc4s3)cc2)cc1[N+](=O)[O-]`, with 0.8 µM; and `Cc1ccc(N2C(=O)/C(=C/c3ccc(O)c(O)c3)SC2=S)cc1C`, with 4 µM; and `COc1ccc2c(c1)N(C(=O)CN1C(=O)c3ccccc3C1=O)C(C)(C)c1ssc(=S)c1-2`, with “inactive”. Turning to `CN(C)S(=O)(=O)c1ccc(Nc2ccc(O)c3c2C(=O)c2c([N+](=O)[O-])ccc(O)c2C3=O)cc1`, the IC50 was 0.8 µM.

For `O=C1c2ccccc2C(=O)c2c(O)c(O)cc(O)c21`, the IC50 was 4.2 µM. In the case of `O=c1[nH]c(=S)n(-c2ccccc2F)c(O)c1C=C1C=CC=N1`, the IC50 is 0.4 µM.

The record behind these values is PubChem BioAssay AID366 (MTDP, 2006).
